In patent US9630941B2 (priority 2008, dated 2017):
“Also recorded” adds a separate entry of the source.

Legend:
[1] = Bioreversion: plasma stability, rabbit plasma; format: in vitro ADME
[2] = Aqueous solubility, pH dependent; format: physicochemical
[3] = Control (IPBS) stability for the buccal homogenate study; format: physicochemical
Procedure: (§1) b. Porcine Buccal Tissue Homogenate Stability
(§2) Protein Concentration 2 mg/ml

[4] = Porcine buccal tissue homogenate stability; format: in vitro ADME; conditions: protein concentration 2 mg/ml
Procedure: as §1, §2

[5] = Thermal stability, 120° C. for 10 min; format: physicochemical; conditions: for CBN content of the sample after heating / Drug remaining / THC content of the sample after heating / Drug remaining (%): 120° C. for 10 min; for Drug remaining (%): % of initial; for CBN content of the sample, initial / Initial, μg (drug itself) / THC content of the sample, initial: before heating
Procedure: C. Thermal Stability—120° C. for 10 min.

[6] = Chemical stability pH dependent at 25° C.; format: physicochemical
Procedure: B. Chemical Stability pH Dependent at 25° C.

[7] = Bioreversion: plasma stability, porcine plasma; format: in vitro ADME
[8] = In vivo ocular bioavailability of THC after topical formulations; conditions: for concentration at 1 h: male, New Zealand albino, rabbit, topical
[9] = system: intraocular pressure (IOP) induced model of glaucoma; test: Rabbit glaucoma model, IOP lowering after topical instillation; conditions: THC in Tocrisolve, 50 μL topical
[10] = Plasma THC from HME buccal patches in swine model; format: in vivo; conditions: swine
Procedure: THC was used as control formulation. Plasma was sampled from each animal at predetermined times and the amount of THC in the plasma was determined.
FIG. 20: Plasma THC concentrations as a function of time from THC-Val-HS loaded HME buccal patches. Data represents the mean value from 4 pigs. The animals were maintained under anesthesia for the first 4 hours and were then allowed to come out of anesthesia and given access to food and water.
A dose dependent plasma concentration time profile was then evaluated.
Plasma THC concentrations as a function of time and dose from THC-Val-HS loaded HME patches. Data represents the mean value. The animals for maintained under anesthesia for the first 4 hours and were then allowed to come out of anesthesia and given access to food and water.

CCCCCc1cc(OC(=O)C(N)CC(C)C)c2c(c1)OC(C)(C)C1CCC(C)=CC21 (stereo not shown) [THC-Leucinate (8), Δ^9-THC-leucinate]
K [1]: 33.84 ± 10.92 ×10^−2 min^−1
T1/2 [1]: 2.160 ± 0.697 min
Aqueous Solubility ([2]; pH 1.2): 9.36 ± 0.11 µg/mL
Aqueous Solubility ([2]; pH 1.2, listed as THC-Leucine): 21.89 ± 0.26 µM
Aqueous Solubility ([2]; pH 2): 23.71 ± 0.40 µg/mL
Aqueous Solubility ([2]; pH 2, listed as THC-Leucine): 55.46 ± 0.93 µM
Aqueous Solubility ([2]; pH 3): 5.17 ± 0.60 µg/mL
Aqueous Solubility ([2]; pH 3, listed as THC-Leucine): 12.08 ± 1.40 µM
Aqueous Solubility ([2]; pH 4): 1.95 ± 0.09 µg/mL
Aqueous Solubility ([2]; pH 4, listed as THC-Leucine): 4.33 ± 0.20 µM
Aqueous Solubility ([2]; pH 5): 0.23 ± 0.03 µg/mL
Aqueous Solubility ([2]; pH 5, listed as THC-Leucine): 0.54 ± 0.06 µM
Aqueous Solubility ([2]; pH 6): 0.08 ± 0.01 µg/mL
Aqueous Solubility ([2]; pH 6, listed as THC-Leucine): 0.19 ± 0.02 µM
K [3]: 5.49 ± 0.46 ×10^−3 min^−1
K [4]: 22.98 ± 1.49 ×10^−3 min^−1
T1/2 [4]: 30.21 ± 1.95 min
Drug loading (%) [5]: 103.65 ± 4.12%
CBN content of the sample after heating [5]: 20.27 ± 0.43 µg
Drug remaining [5]: 1383.29 ± 40.73 µg
THC content of the sample after heating [5]: 25.86 ± 0.83 µg
Drug remaining (%) [5]: (88.99 ± 0.92) %
CBN content of the sample, initial [5]: 16.34 ± 0.50 µg
Initial, μg (drug itself) [5]: 1554.80 ± 61.76 µg
THC content of the sample, initial [5]: -6.13 ± 0.84 µg
First order rate constant ([6]; Buffer pH 5.0, 25° C.): 15.94 ± 3.38 ×10^−3 h^−1
First order rate constant ([6]; Buffer pH 7.0, 25° C.): 85.91 ± 16.83 ×10^−3 h^−1
First order rate constant ([6]; Buffer pH 9.0, 25° C.): 119.98 ± 33.51 ×10^−3 h^−1
First order rate constant ([6]; Water, 25° C.): 8.51 ± 2.80 ×10^−3 h^−1
K [7]: 42.70 ± 3.58 ×10^−2 min^−1
T1/2 [7]: 1.629 ± 0.137 min

CCCCCc1cc(OC(=O)C(N)C(C)C)c2c(c1)OC(C)(C)C1CCC(C)=CC21 (stereo not shown) [THC-Valinate (6), Δ^9-THC-valinate]
K [1]: 61.94 ± 6.01 ×10^−2 min^−1
T1/2 [1]: 1.124 ± 0.109 min
Aqueous Solubility ([2]; H20): 0.05 µg/mL
Aqueous Solubility ([2]; pH 1.2): 32.16 ± 0.27 µg/mL
Aqueous Solubility ([2]; pH 1.2, listed as THC-Valine): 78.23 ± 0.66 µM
Aqueous Solubility ([2]; pH 2): 53.66 ± 10.30 µg/mL
Aqueous Solubility ([2]; pH 2, listed as THC-Valine): 147.35 ± 24.90 µM
Aqueous Solubility ([2]; pH 3): 28.76 ± 0.14 µg/mL
Aqueous Solubility ([2]; pH 3, listed as THC-Valine): 69.78 ± 0.33 µM
Aqueous Solubility ([2]; pH 4): 10.34 ± 0.53 µg/mL
Aqueous Solubility ([2]; pH 4, listed as THC-Valine): 24.10 ± 1.28 µM
Aqueous Solubility ([2]; pH 5): 1.27 ± 0.25 µg/mL
Aqueous Solubility ([2]; pH 5, listed as THC-Valine): 3.51 ± 0.62 µM
Aqueous Solubility ([2]; pH 6): 0.07 ± 0.00 µg/mL
Aqueous Solubility ([2]; pH 6, listed as THC-Valine): 0.17 ± 0.00 µM
K [3]: 3.66 ± 0.68 ×10^−3 min^−1
K [4]: 16 ± 0.19 ×10^−3 min^−1
T1/2 [4]: 43.30 ± 0.51 min
Drug loading (%) [5]: 104.67 ± 2.22%
CBN content of the sample after heating [5]: 8.79 ± 2.43 µg
Drug remaining [5]: 1440.57 ± 46.34 µg
THC content of the sample after heating [5]: 74.35 ± 5.26 µg
Drug remaining (%) [5]: (91.80 ± 4.90) %
CBN content of the sample, initial [5]: 8.27 ± 1.68 µg
Initial, μg (drug itself) [5]: 1570.09 ± 33.27 µg
THC content of the sample, initial [5]: 61.91 ± 9.49 µg
First order rate constant ([6]; Buffer pH 5.0, 25° C.): 4.06 ± 0.01 ×10^−3 h^−1
First order rate constant ([6]; Buffer pH 7.0, 25° C.): 47.13 ± 1.16 ×10^−3 h^−1
First order rate constant ([6]; Buffer pH 9.0, 25° C.): 67.64 ± 7.67 ×10^−3 h^−1
First order rate constant ([6]; Water, 25° C.): 23.70 ± 0.77 ×10^−3 h^−1
K [7]: 91.16 ± 10.91 ×10^−2 min^−1
T1/2 [7]: 0.766 ± 0.092 min

CCCCCc1cc(O)c2c(c1)OC(C)(C)C1CCC(C)=CC21 (stereo not shown) [THC, Δ^9-Tetrahydrocannabinol, reference compound]
THC concentrations in aqueous humor, iris-ciliary bodies / anterior segment ocular tissues ([8]; 1 hour post topical application): not observed
concentration at 1 h ([8]; cornea, 50 μL of 0.1% w/v THC): 1380 ng/g
concentration at 1 h ([8]; cornea, 50 μL of 0.37% w/v THC): 6010 ng/g
concentration at 1 h ([8]; sclera, 50 μL of 0.1% w/v THC): 416 ng/g
concentration at 1 h ([8]; sclera, 50 μL of 0.37% w/v THC): 684 ng/g
solubility ([2]; aqueous medium at pH 2, pH 2, aqueous buffer): 0.95 µg/mL
solubility ([2]; aqueous medium at pH 3, pH 3, aqueous buffer): 2.23 µg/mL
solubility ([2]; aqueous medium at pH 4, pH 4, aqueous buffer): 1.27 µg/mL
solubility ([2]; aqueous medium at pH 5, pH 5, aqueous buffer): 2.23 µg/mL
solubility ([2]; aqueous medium at pH 6, pH 6, aqueous buffer): 2.23 µg/mL
solubility ([2]; aqueous medium at pH 7, pH 7, aqueous buffer): 2.23 µg/mL
solubility ([2]; aqueous medium at pH 8, pH 8, aqueous buffer): 2.23 µg/mL
solubility ([2]; aqueous medium, pH 3, aqueous buffer): 2.23 µM
solubility ([2]; aqueous medium, pH 4, aqueous buffer): 1.27 µM
solubility ([2]; aqueous medium, pH 5, aqueous buffer): 2.23 µM
solubility ([2]; aqueous medium, pH 6, aqueous buffer): 2.23 µM
solubility ([2]; aqueous medium, pH 7, aqueous buffer): 2.23 µM
solubility ([2]; aqueous medium, pH 8, aqueous buffer): 2.23 µM
solubility ([2]; pH 2, aqueous buffer): 0.95 µM
solubility ([2]; water): 2.23 µM
solubility ([2]; water, H20): 2.23 µg/mL
maximum observed effect, drop in IOP from baseline [9]: 40%
time for IOP to return to 90% of baseline [9]: ≤ 2 h
time to maximum effect post topical application [9]: ≤ 30 min
Drug loading (%) [5]: 85.38 ± 7.25%
CBN content of the sample after heating [5]: 53.85 ± 1.60 µg
Drug remaining [5]: 1214.10 ± 39.12 µg
Drug remaining (%) [5]: (95.05 ± 5.05) %
CBN content of the sample, initial [5]: 56.76 ± 4.86 µg
Initial, μg (drug itself) [5]: 1280.70 ± 108.77 µg
Transbuccal systemic bioavailability of THC ([10]; THC loaded HME patch): no bioavailability; also recorded: extremely poor
THC levels in plasma from transmucosal HME patches ([10]; buccal patch): No THC levels were detected
First order rate constant ([6]; Buffer pH 5.0, 25° C.): 0.017 h⁻¹
First order rate constant ([6]; Buffer pH 7.0, 25° C.): 0.0098 h⁻¹
